According to US12599585B2, “Use of [(1R)-1-(2-chlorophenyl)-2-(tetrazol-2-yl)ethyl] carbamate in combination therapy” (priority 2018, dated 2026):

Tests used:
[1] = population pharmacokinetic (PopPK) modeling and simulation of the cenobamate effect on concomitant AED concentrations in subjects with partial onset seizures; type: in vivo, human; conditions: cenobamate dose 100-400 mg/day
Protocol: This study was carried out to make an assessment of the extent to which the adjunctive treatment with cenobamate may affect the recommended dosing of other AEDs. Population pharmacokinetics (PopPK) models describing how cenobamate exposure affects that of other commonly used AEDs (i.e., carbamazepine, lamotrigine, levetiracetam, oxcarbazepine, phenytoin and valproic acid) when given as adjunct therapy.
Therapeutically effective amount for AEDs are different depending on the condition of subjects participated in the study. For carbamazepine, therapeutically effective amount was about 800 mg/day to about 1,200 mg/day for adults and children over 12 years of age. For lamotrigine, therapeutically effective amount was about 100 mg/day to about 500 mg/day, preferably about 100 mg/day to 200 mg/day, for adults and children over 12 years of age. For levetiracetam, therapeutically effective amount was about 3,000 mg/day for adults and children over 12 years of age. For phenytoin, therapeutically effective amount was about 300 mg/day to about 600 mg/day for adults. For valproic acid, therapeutically effective amount was about 60 mg/kg/day for adults.
PopPk datasets were constructed from clinical databases for Cenobamate Study 1, Cenobamate Study 2 and Cenobamate Study 3. The dosing, exposure, covariate and AED concentration data were merged by subject, date, and time; formatted for PopPK analysis and saved in ASCII format using R software (Version 3.2.2, Comprehensive R Network, cran.r-project.org). All data programs were documented and archived in a locked on-line repository in order to maintain an audit trail. A quality control (QC) check of the data management procedure was conducted according to qPharmetra standard operating procedures (SOPs).
Results from Cenobamate Study 1, Cenobamate Study 2 and Cenobamate Study 3 were included in the analyses. Each study is described in more detail in the subsequent sections.
This is a multicenter, double-blind, randomized, adjunctive placebo-controlled trial with an open-label extension phase to evaluate the efficacy and safety of cenobamate in subjects with treatment resistant partial onset seizures. Subjects with partial onset seizures not fully controlled despite their treatment with 1 to 3 concomitant AEDs were included in this study. The study included an 8 week baseline period to assess seizure frequency. Only subjects who experienced at least 3 seizures/month during the baseline period with no 21-day seizure-free period were randomized in a 1:1 ratio to add-on placebo or cenobamate administered in an oral formulation once daily in the morning. Subjects then entered a 12-week double-blind treatment period, consisting of a 6-week titration phase followed by a 6-week maintenance phase. In maintenance phase, the dose was 200 mg/day. Blood samples were drawn at the baseline, predose at the start of the titration phase, and on days 15, 29, 43, 57 and 85 after the first dose during the double-blinded treatment period. These samples were analyzed for lamotrigine, levetiracetam, oxcarbazepine, carbamazepine, and valproic acid.
This is a multicenter, double-blind, randomized, placebo-controlled dose-response study, with an 8-week prospective baseline and an 18-week double-blind treatment period. Subjects must have had least 8 partial seizures including only simple partial seizures with motor component, complex partial seizures, or secondarily generalized seizures without a seizure-free interval of greater than 25 days any time during the 8-week baseline despite their treatment with 1 to 3 AEDs. Subjects must have had at least 3 of these partial seizures during each of the two consecutive 4-week periods in the baseline period to be randomized to 100, 200 or 400 mg/day cenobamate or placebo (1:1:1:1 ratio) administered as a tablet formulation once daily in the morning. Subjects first entered a 6-week titration followed by a 12-week maintenance phase. […]

[2] = open-label multiple dose PK drug-interaction studies of cenobamate co-administered with AEDs; type: in vivo, human
Protocol: This study was carried out to assess the effect of cenobamate on the disposition of four AEDs (divalproex sodium, phenobarbital, phenytoin and carbamazepine) and the effect of four AEDs on the disposition of cenobamate. The details are described below.
Five open-label, multiple dose, multiple period, 1 sequence, PK drug-interaction studies were conducted examining co-administration of cenobamate and each of the above-mentioned AEDs. Specifically, five studies were conducted, as follows:
This is an open-label, multiple-dose, 1 sequence, 3 period pharmacokinetic drug interaction study between cenobamate and divalproex in normal volunteer subjects. Sixteen subjects were enrolled. All subjects were scheduled to undergo 3 treatment periods as a 1 sequence design: • Period 1 (Days 1 to 5): Single oral daily administration of 1000 mg divalproex (Treatment A). • Period 2 (Days 6 to 19): Co-administration of single oral daily administration of 1000 mg divalproex and 150 mg cenobamate (Treatments A and B). • Period 3 (Days 20 to 25): Single oral daily administration of 150 mg cenobamate (Treatment B). (Number of Subjects Planned: 16 Enrolled: 16 Analyzed: 16) Study 2—Phenobarbital
This is an open-label, 1-arm, 2-treatment study. Sixteen (16) healthy, adult, non-tobacco using, male and female subjects were enrolled. Screening of subjects occurred within 28 days prior to the first dose. A total of 16 subjects were enrolled in the study, and 14 subjects completed the study. The PK dataset therefore included 16 subjects for phenobarbital alone and 14 subjects for the combination treatment. There were 16 subjects included in the safety analyses.
Treatment A subjects received 30 mg phenobarbital TID on Days 1 to 7, followed by 90 mg phenobarbital QD in the morning on Days 8 to 21. All study drugs were administered orally with approximately 240 mL of water.
Treatment B subjects received 90 mg phenobarbital QD in the morning from Days 22 to 56 co-administered with 50 mg cenobamate QD on Days 22 to 28, 100 mg cenobamate QD on Days 29 to 35, 150 mg cenobamate QD on Days 36 to 42, and 200 mg cenobamate QD on Days 43 to 56. All study drugs were administered orally with approximately 240 mL of water. The study duration was approximately 13 weeks from screening to end-of-study procedures. There was approximately 17 weeks from screening to attempted follow-up phone call. There was no washout. […]
Blood samples were obtained prior to and following dosing at selected times through 24 hours postdose on selected days (Days 14, 28, and 70). Plasma samples were analyzed for phenytoin and cenobamate concentrations using validated analytical methods. Appropriate PK parameters were calculated for each treatment using non-compartmental methods. […]

[3] = combination therapy with phenytoin vs cenobamate alone (FIG. 3)
[4] = combination therapy with cenobamate vs AED alone (FIG. 2)

For `NC(=O)N1c2ccccc2C=Cc2ccccc21` [Carbamazepine, carbamazepine], which “Effect on AED Concentration (AUC): Reduction by” value (“Effect … Reduction by” below) [1] is on record?
Its value is “Reduction by 11-34%”.

For `Nc1nnc(-c2cccc(Cl)c2Cl)c(N)n1` [Lamotrigine, lamotrigine], which “Effect … Reduction by” value [1] is on record?
Its value is “Reduction by 21-52%”.

For `CC[C@@H](C(N)=O)N1CCCC1=O` [Levetiracetam, levetiracetam], which “Effect … Reduction by” value [1] is on record?
The value was “Reduction by 4-13%”.

For `NC(=O)N1c2ccccc2CC(=O)c2ccccc21` [Oxcarbazepine, oxcarbazepine], which “Effect on AED Concentration (AUC): Increase by” value [1] is on record?
Its value is “Increased by 10%”.

With `O=C1NC(=O)C(c2ccccc2)(c2ccccc2)N1` [Phenytoin, phenytoin] as the compound, how does the “Effect on AED Concentration (AUC): Increase by” value [1] read?
The value was “Increase by 10-60%”.

Which “Effect … Reduction by” value [1] does the source give for `CCCC(CCC)C(=O)O` [Valproic acid, valproic acid] here?
The value was “Reduction by 5-19%”.

What does the source list for `NC(=O)O[C@@H](Cn1ncnn1)c1ccccc1Cl` [cenobamate, [(1R)-1-(2-chlorophenyl)-2-(tetrazol-2-yl)ethyl] carbamate]?
plasma AUC for cenobamate [2, 3]: decreased; plasma Cmax for cenobamate [2, 3]: decreased

Which results are given for `CCC1(c2ccccc2)C(=O)NC(=O)NC1=O` [phenobarbital]?
plasma AUC of the AED [2, 4]: increased; plasma Cmax of the AED [2, 4]: increased
